Entries after “also recorded” stand apart in the source; their conditions may differ. Where no end group is shown, it is not given here. [ ]: non-standard residue; d: D form.
How the values were obtained:
TgSwDI mouse model [1] = assay: Object recognition test (ORT); type: in vivo; details: TgSwDI mice
Experimental: FIG. 1: Here, the result of the so-called “object recognition test” (ORT) is shown. Animals treated with D3D3 (amidated) (details in Table 2) and animals treated with placebo were placed individually and separately from each other in a box in which two objects were located. After the animals had time to explore both objects, the animals were removed from the box again and not placed back in there until 24 hours later. Before that, however, one object was replaced with a new object different therefrom. Animals having memory now preferably explore the new object. Animals having no memory of having stayed in the box 24 hours earlier spend the same amount of time exploring the old object and the new object. The time that the animal spends with the old object (white bars) and the new object (black bars) is measured in seconds. It is clearly apparent that the animals treated with the placebo spend the same amount of time with the new and the old objects. […] Thus, only the animals treated with D3D3 show a functioning memory in the test.
FIG. 5: Here, the result of the so-called “object recognition test” (ORT) is shown. Animals treated with RD2D3 (amidated) (details in Table 2) and animals treated with placebo were placed individually and separately from each other in a box in which two objects were located. After the animals had time to explore both objects, the animals were removed from the box again and not placed back in there until 24 hours later. Before that, however, one object was replaced with a new object different therefrom. Animals having memory now preferably explore the new object. Animals having no memory of having stayed in the box 24 hours earlier spend the same amount of time exploring the old object and the new object. The time that the animal spends with the old object (black bars) and the new object (white bars) is measured in seconds. It is clearly apparent that the animals treated with the placebo spent the same amount of time with the new and the old objects.

TBA 2.1 mice [2] = assay: SHIRPA test; type: in vivo, mouse; details: 0.1 mg/day i.p. for 4 weeks (micropump), before vs after treatment, FIG. 3, listed as D3D3 (amidated)
Experimental: FIG. 3: The SHIRPA test is a test where a number of characteristics, including reflexes, are tested. Each characteristic is assessed separately from the others, and points are awarded in each case. The higher the number of points, the more progressed the phenotype, which is to say the neurological damage, is. The SHIRPA test was measured prior to (black bars) and after (white bards) the treatment (treatment details are provided in Table 2). […] D3D3 thus acts more efficiently than D3.

TBA 2.1 mice [3] = assay: Rotarod test; type: in vivo, mouse; details: 0.1 mg/day i.p. for 4 weeks (micropump), before vs after treatment
Excerpt: FIG. 2: The so-called “rotarod” test is used to measure how long an animal is able to balance on a rotating rod before falling off. This allows the animal's neuromotor performance to be measured. The longer the animal is able to balance, the less strongly the motor neurons are affected by the phenotype of neurodegeneration. The difference between before and after treatment is plotted in seconds. […] As expected, the degeneration has thus progressed. […] Thus, the treatment slowed, or even stopped, the neurodegeneration in both instances.

TgSwDI mouse model [4] = assay: Morris water maze; type: in vivo; details: TgSwDI mice, 7 mg/4 weeks i.p. (micropump), day 5, FIG. 4; listed as RD2D3 (amidated)
Experimental: FIG. 4: The so-called “Morris water maze” is used to measure the spatial memory of animals. The time is measured in seconds that the animal requires to locate a platform hidden closely beneath the water surface in a water tank. This is measured in several experiments per day on several consecutive days. […] The search time is plotted in seconds on five consecutive days. The learning of animals treated with RD2D3 (amidated) was significant.

[5] = target: T1, amyloid beta fibrils (Aß1-42) (Homo sapiens, UniProt P05067); assay: SPR binding kinetics, amyloid beta fibrils; details: heterogeneous binding model, FIG. 8
T1 construct: 1 mg lyophilized Aß1-42 and N-terminal biotinylated Aß1-42; biotin (only on part of the peptide molecules)
Experimental: (§1) 1 mg lyophilized Aß1-42 and N-terminal biotinylated Aß1-42 were each dissolved in 1 ml 100% hexafluoroisopropanol (HFIP) and dissolved overnight at room temperature. For the oligomer and fibril preparation, non-biotinylated Aß was used with N-terminal biotinylated Aß at a ratio of 1:10 and the HFIP was evaporated (Concentrator 5301 from Eppendorf). The resultant Aß film, at a final concentration of 80 μM, was placed in sodium phosphate buffer (10 mM, pH 7.4) and incubated (RT, 600 rpm). The incubation time was 3 h for the oligomer preparation, and 24 h for the fibril preparation. 100% N-terminal biotinylated Aß1-42 without incubation was used for the preparation of monomers.
The density gradient centrifugation was carried out subsequent to the Aß preparation to purify the respective Aß species according to the size of the same. An iodixanol gradient in 10 mM sodium phosphate buffer, pH 7.4 with rising concentrations from 50% to 5% v/v iodixanol was used for this purpose. 100 μl of the Aß sample was applied and separated by way of ultracentrifugation (3 h, 4° C., 259000 g). […]
(§2) Binding kinetics were likewise measured by way of SPR spectroscopy using a T200 device from Biacore (GE Healthcare). […] The binding curves were evaluated by way of kinetic fit models (heterogeneous binding model) using the Biacore T200 evaluation software (version 2.0). […]

[6] = target: T2, amyloid beta oligomers (Aß1-42) (Homo sapiens, UniProt P05067); assay: SPR binding kinetics, amyloid beta oligomer
T2 construct: 1 mg lyophilized Aß1-42 and N-terminal biotinylated Aß1-42; biotin (only on part of the peptide molecules)
Experimental: as §1
The density gradient centrifugation was carried out subsequent to the Aß preparation to purify the respective Aß species according to the size of the same. An iodixanol gradient in 10 mM sodium phosphate buffer, pH 7.4 with rising concentrations from 50% to 5% v/v iodixanol was used for this purpose. 100 μl of the Aß sample was applied and separated by way of ultracentrifugation (3 h, 4° C., 259000 g). Subsequently, the gradient was fractionated into 14 fractions, 140 μl each. Monomeric Aß are present in the first two top fractions, Aß oligomers in fractions 4 to 6, and Aß fibrils in fractions […].
Immobilization for Surface Plasmon Resonance (SPR) Spectroscopy A T200 from Biacore (GE Healthcare) was used for SPR spectroscopy. The Aß species purified by way of density gradient centrifugation were directly immobilized on a sensor chip (Series S Sensor Chips SA) according to the manufacturer's instructions by way of biotin-streptavidin coupling. 1×PBS was used as the running buffer. Loading took place at 25° C. and a flow rate of 5 μl/min. […]
as §2

T2 sequence (P05067 672-713): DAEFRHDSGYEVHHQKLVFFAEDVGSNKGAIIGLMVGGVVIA
T1 sequence (P05067 672-713): as above

“D3D3 amidated: dimer D3D3 (SEQ ID NO: 6), amidated at position 24 at the free C-terminus ([dR][dP][dR][dT][dR][dL][dH][dT][dH][dR][dN][dR][dR][dP][dR][dT][dR][dL][dH][dT][dH][dR][dN][dR]-NH2; N-terminus assumed; SMILES CC(C)C[C@@H](NC(=O)[C@@H](CCCNC(=N)N)NC(=O)[C@H](NC(=O)[C@@H](CCCNC(=N)N)NC(=O)[C@H]1CCCN1C(=O)[C@H](N)CCCNC(=N)N)[C@H](C)O)C(=O)N[C@H](Cc1c[nH]cn1)C(=O)N[C@@H](C(=O)N[C@H](Cc1c[nH]cn1)C(=O)N[C@H](CCCNC(=N)N)C(=O)N[C@H](CC(N)=O)C(=O)N[C@H](CCCNC(=N)N)C(=O)N[C@H](CCCNC(=N)N)C(=O)N1CCC[C@@H]1C(=O)N[C@H](CCCNC(=N)N)C(=O)N[C@@H](C(=O)N[C@H](CCCNC(=N)N)C(=O)N[C@H](CC(C)C)C(=O)N[C@H](Cc1c[nH]cn1)C(=O)N[C@@H](C(=O)N[C@H](Cc1c[nH]cn1)C(=O)N[C@H](CCCNC(=N)N)C(=O)N[C@H](CC(N)=O)C(=O)N[C@H](CCCNC(=N)N)C(N)=O)[C@H](C)O)[C@H](C)O)[C@H](C)O)” was tested, and the Object recognition (TgSwDI mouse model [1]; 1 mg/4 weeks i.p. (micropump), FIG. 1) was “significant”, the Object recognition (TgSwDI mouse model [1]; 1 mg/4 weeks i.p. (micropump), FIG. 1, listed as D3D3) was “considerably improves cognition” and the Object recognition (TgSwDI mouse model [1]; 1 mg/4 weeks i.p. (micropump), FIG. 1, listed as D3D3 (amidated)) was “spend much more time with the new object”. For the same substance, the SHIRPA (TBA 2.1 mice [2]) was “showed no significant worsening of the SHIRPA value; also recorded: acts more efficiently than the simple peptide D3 (amidated)”, the Rotarod (TBA 2.1 mice [3]; FIG. 2, listed as D3D3) was “able to stop the progression of the phenotype” and the Rotarod (TBA 2.1 mice [3]; FIG. 2, listed as D3D3 (amidated)) was “exhibited no worsening of the neuromotor symptoms”.
With “RD2D3 amidated: dimer RD2D3 (SEQ ID NO: 4), amidated at position 24 at the free C-terminus ([dP][dT][dL][dH][dT][dH][dN][dR][dR][dR][dR][dR][dR][dP][dR][dT][dR][dL][dH][dT][dH][dR][dN][dR]-NH2; N-terminus assumed; SMILES CC(C)C[C@@H](NC(=O)[C@@H](CCCNC(=N)N)NC(=O)[C@H](NC(=O)[C@@H](CCCNC(=N)N)NC(=O)[C@H]1CCCN1C(=O)[C@@H](CCCNC(=N)N)NC(=O)[C@@H](CCCNC(=N)N)NC(=O)[C@@H](CCCNC(=N)N)NC(=O)[C@@H](CCCNC(=N)N)NC(=O)[C@@H](CCCNC(=N)N)NC(=O)[C@@H](CCCNC(=N)N)NC(=O)[C@@H](CC(N)=O)NC(=O)[C@@H](Cc1c[nH]cn1)NC(=O)[C@H](NC(=O)[C@@H](Cc1c[nH]cn1)NC(=O)[C@@H](CC(C)C)NC(=O)[C@H](NC(=O)[C@H]1CCCN1)[C@H](C)O)[C@H](C)O)[C@H](C)O)C(=O)N[C@H](Cc1c[nH]cn1)C(=O)N[C@@H](C(=O)N[C@H](Cc1c[nH]cn1)C(=O)N[C@H](CCCNC(=N)N)C(=O)N[C@H](CC(N)=O)C(=O)N[C@H](CCCNC(=N)N)C(N)=O)[C@H](C)O)” the Object recognition (TgSwDI mouse model [1]; 7 mg/4 weeks i.p. (micropump), FIG. 5) was “significant”, the Object recognition (TgSwDI mouse model [1]; 7 mg/4 weeks i.p. (micropump), FIG. 5, listed as RD2D3 (amidated)) was “spend much more time with the new object; also recorded: able to improve the cognition of SweDI mice” and the Water maze (TgSwDI mouse model [4]) was “able to improve the cognition of SweDI mice”.
For RKRTRLHTHRNR [cD3(P2K)], the “Binding strength (KD, kinetics) to amyloid beta fibrils” value [5] was “sub-pM binding range”.
For “cD3z: cD3 zero, cyclized D3 without any further amino acid attachments (cyclo([dR][dP][dR][dT][dR][dL][dH][dT][dH][dR][dN][dR]); SMILES CC(C)C[C@H]1NC(=O)[C@@H](CCCNC(=N)N)NC(=O)[C@@H]([C@H](C)O)NC(=O)[C@@H](CCCNC(=N)N)NC(=O)[C@H]2CCCN2C(=O)[C@@H](CCCNC(=N)N)NC(=O)[C@@H](CCCNC(=N)N)NC(=O)[C@@H](CC(N)=O)NC(=O)[C@@H](CCCNC(=N)N)NC(=O)[C@@H](Cc2c[nH]cn2)NC(=O)[C@@H]([C@H](C)O)NC(=O)[C@@H](Cc2c[nH]cn2)NC1=O)”, the “Rmax, contribution of KD2 (high-affinity site) to RU total loading” value ([6]; oligomers, FIG. 7, high-affinity site) was 21% and the “Rmax, contribution of the low-affinity site to RU total loading” value ([6]; oligomers, FIG. 7, low-affinity site (white bar)) was 79%.
With “rprtrlhthrnr ([dR][dP][dR][dT][dR][dL][dH][dT][dH][dR][dN][dR]) [linear D3, known D-enantiomeric peptide D3, linear, unmodified C-terminal carboxyl group, reference compound]” the “Binding strength (KD, kinetics) to amyloid beta oligomer” value ([6]; heterogeneous binding model, FIG. 7) was “binds only a low-affinity site, but not a high-affinity site”.
